Experimental data as given in publication PMC11420776 (RSC Advances, 2024).

How the values were obtained:
UO-31 (renal cancer) = assay: NCI 60-cell one-dose antiproliferative screen; type: cell-based, human; conditions: one dose 10 μM
UACC-62 (melanoma) = assay: NCI 60-cell one-dose antiproliferative screen; type: cell-based, human; conditions: one dose 10 μM
MDA-MB-435 (melanoma) = assay: NCI 60-cell one-dose antiproliferative screen; type: cell-based, human; conditions: one dose 10 μM
[1] = system: MDA-MB-468 (breast cancer); assay: NCI 60-cell one-dose antiproliferative screen; type: cell-based, human; conditions: one dose 10 μM
MCF7 (breast cancer) = assay: NCI 60-cell one-dose antiproliferative screen; type: cell-based, human; conditions: one dose 10 μM
TK-10 (renal cancer) = assay: NCI 60-cell one-dose antiproliferative screen; type: cell-based, human; conditions: one dose 10 μM
DU-145 (prostate cancer) = assay: NCI 60-cell one-dose antiproliferative screen; type: cell-based, human; conditions: one dose 10 μM
OVCAR-5 (ovarian cancer) = assay: NCI 60-cell one-dose antiproliferative screen; type: cell-based, human; conditions: one dose 10 μM
[2] = system: NCI-H460 (NSC lung cancer); assay: NCI 60-cell one-dose antiproliferative screen; type: cell-based, human; conditions: one dose 10 μM
SK-MEL-2 (melanoma) = assay: NCI 60-cell one-dose antiproliferative screen; type: cell-based, human; conditions: one dose 10 μM
HCT-15 (colon cancer) = assay: NCI 60-cell one-dose antiproliferative screen; type: cell-based, human; conditions: one dose 10 μM
[3] = system: NCI/ADR-RES (ovarian cancer); assay: NCI 60-cell one-dose antiproliferative screen; type: cell-based, human; conditions: one dose 10 μM
HCC-2998 (colon cancer) = assay: NCI 60-cell one-dose antiproliferative screen; type: cell-based, human; conditions: one dose 10 μM
HCT-116 (colon cancer) = assay: NCI 60-cell one-dose antiproliferative screen; type: cell-based, human; conditions: one dose 10 μM
[4] = system: A549/ATCC (NSC lung cancer); assay: NCI 60-cell one-dose antiproliferative screen; type: cell-based, human; conditions: one dose 10 μM
T-47D (breast cancer) = assay: NCI 60-cell one-dose antiproliferative screen; type: cell-based, human; conditions: one dose 10 μM
SK-MEL-28 (melanoma) = assay: NCI 60-cell one-dose antiproliferative screen; type: cell-based, human; conditions: one dose 10 μM
RPMI-8226 (leukemia) = assay: NCI 60-cell one-dose antiproliferative screen; type: cell-based, human; conditions: one dose 10 μM
SW-620 (colon cancer) = assay: NCI 60-cell one-dose antiproliferative screen; type: cell-based, human; conditions: one dose 10 μM
MALME-3M (melanoma) = assay: NCI 60-cell one-dose antiproliferative screen; type: cell-based, human; conditions: one dose 10 μM
[5] = system: NCI-H23 (NSC lung cancer); assay: NCI 60-cell one-dose antiproliferative screen; type: cell-based, human; conditions: one dose 10 μM
HOP-92 (NSC lung cancer) = assay: NCI 60-cell one-dose antiproliferative screen; type: cell-based, human; conditions: one dose 10 μM
HT29 (colon cancer) = assay: NCI 60-cell one-dose antiproliferative screen; type: cell-based, human; conditions: one dose 10 μM
U251 (CNS cancer) = assay: NCI 60-cell one-dose antiproliferative screen; type: cell-based, human; conditions: one dose 10 μM
M14 (melanoma) = assay: NCI 60-cell one-dose antiproliferative screen; type: cell-based, human; conditions: one dose 10 μM
[6] = system: MDA-MB-231/ATCC (breast cancer); assay: NCI 60-cell one-dose antiproliferative screen; type: cell-based, human; conditions: one dose 10 μM
SNB-75 (CNS cancer) = assay: NCI 60-cell one-dose antiproliferative screen; type: cell-based, human; conditions: one dose 10 μM
CCRF-CEM (leukemia) = assay: NCI 60-cell one-dose antiproliferative screen; type: cell-based, human; conditions: one dose 10 μM
OVCAR-8 (ovarian cancer) = assay: NCI 60-cell one-dose antiproliferative screen; type: cell-based, human; conditions: one dose 10 μM
786-0 (renal cancer) = assay: NCI 60-cell one-dose antiproliferative screen; type: cell-based, human; conditions: one dose 10 μM
SK-OV-3 (ovarian cancer) = assay: NCI 60-cell one-dose antiproliferative screen; type: cell-based, human; conditions: one dose 10 μM
SF-539 (CNS cancer) = assay: NCI 60-cell one-dose antiproliferative screen; type: cell-based, human; conditions: one dose 10 μM
HOP-62 (NSC lung cancer) = assay: NCI 60-cell one-dose antiproliferative screen; type: cell-based, human; conditions: one dose 10 μM
OVCAR-4 (ovarian cancer) = assay: NCI 60-cell one-dose antiproliferative screen; type: cell-based, human; conditions: one dose 10 μM
SF-268 (CNS cancer) = assay: NCI 60-cell one-dose antiproliferative screen; type: cell-based, human; conditions: one dose 10 μM
PC-3 (prostate cancer) = assay: NCI 60-cell one-dose antiproliferative screen; type: cell-based, human; conditions: one dose 10 μM
RXF 393 (renal cancer) = assay: NCI 60-cell one-dose antiproliferative screen; type: cell-based, human; conditions: one dose 10 μM
[7] = system: NCI-H322M (NSC lung cancer); assay: NCI 60-cell one-dose antiproliferative screen; type: cell-based, human; conditions: one dose 10 μM
[8] = system: NCI-H522 (NSC lung cancer); assay: NCI 60-cell one-dose antiproliferative screen; type: cell-based, human; conditions: one dose 10 μM
[9] = system: NCI-H226 (NSC lung cancer); assay: NCI 60-cell one-dose antiproliferative screen; type: cell-based, human; conditions: one dose 10 μM
KM12 (colon cancer) = assay: NCI 60-cell one-dose antiproliferative screen; type: cell-based, human; conditions: one dose 10 μM
SNB-19 (CNS cancer) = assay: NCI 60-cell one-dose antiproliferative screen; type: cell-based, human; conditions: one dose 10 μM
CAKI-1 (renal cancer) = assay: NCI 60-cell one-dose antiproliferative screen; type: cell-based, human; conditions: one dose 10 μM
COLO-205 (colon cancer) = assay: NCI 60-cell one-dose antiproliferative screen; type: cell-based, human; conditions: one dose 10 μM
ACHN (renal cancer) = assay: NCI 60-cell one-dose antiproliferative screen; type: cell-based, human; conditions: one dose 10 μM
SF-295 (CNS cancer) = assay: NCI 60-cell one-dose antiproliferative screen; type: cell-based, human; conditions: one dose 10 μM
HS 578T (breast cancer) = assay: NCI 60-cell one-dose antiproliferative screen; type: cell-based, human; conditions: one dose 10 μM
OVCAR-3 (ovarian cancer) = assay: NCI 60-cell one-dose antiproliferative screen; type: cell-based, human; conditions: one dose 10 μM
LOX IMIV (melanoma) = assay: NCI 60-cell one-dose antiproliferative screen; type: cell-based, human; conditions: one dose 10 μM
A498 (renal cancer) = assay: NCI 60-cell one-dose antiproliferative screen; type: cell-based, human; conditions: one dose 10 μM
EKVX (NSC lung cancer) = assay: NCI 60-cell one-dose antiproliferative screen; type: cell-based, human; conditions: one dose 10 μM
UACC-257 (melanoma) = assay: NCI 60-cell one-dose antiproliferative screen; type: cell-based, human; conditions: one dose 10 μM
SN12C (renal cancer) = assay: NCI 60-cell one-dose antiproliferative screen; type: cell-based, human; conditions: one dose 10 μM
[10] = system: 60 human tumor cell lines; assay: NCI 60-cell one-dose antiproliferative screen, whole panel; type: cell-based; conditions: Homo sapiens, 60 cell, read-out: Mean inhibition (mean GI%)
IGROV1 (ovarian cancer) = assay: NCI 60-cell one-dose antiproliferative screen; type: cell-based, human; conditions: one dose 10 μM

`COc1ccc(-c2nnc3ccc(NNC(C)=O)nn23)cc1` [Compound 6b, N′-(3-(4-methoxyphenyl)-[1,2,4]triazolo[4,3-b]pyridazin-6-yl)acetohydrazide] was tested, and the GI% (UO-31 (renal cancer)) was “— (— GI% is below 15%)”, the GI% (UACC-62 (melanoma)) was “— (— GI% is below 15%)” and the GI% (MDA-MB-435 (melanoma)) was “— (— GI% is below 15%)”. For the same molecule, the GI% [1] was “— (— GI% is below 15%)”, the GI% (MCF7 (breast cancer)) was “— (— GI% is below 15%)” and the GI% (TK-10 (renal cancer)) was “— (— GI% is below 15%)”. For the same molecule, the GI% (DU-145 (prostate cancer)) was “— (— GI% is below 15%)”, the GI% (OVCAR-5 (ovarian cancer)) was “— (— GI% is below 15%)” and the GI% [2] was “— (— GI% is below 15%)”. The GI% (SK-MEL-2 (melanoma)) was “— (— GI% is below 15%)”, the GI% (HCT-15 (colon cancer)) was “— (— GI% is below 15%)” and the GI% [3] was “— (— GI% is below 15%)”. For the same molecule, the GI% (HCC-2998 (colon cancer)) was “— (— GI% is below 15%)”, the GI% (HCT-116 (colon cancer)) was “— (— GI% is below 15%)” and the GI% [4] was “— (— GI% is below 15%)”. For the same molecule, the GI% (T-47D (breast cancer)) was “— (— GI% is below 15%)”, the GI% (SK-MEL-28 (melanoma)) was “— (— GI% is below 15%)” and the GI% (RPMI-8226 (leukemia)) was “— (— GI% is below 15%)”. The GI% (SW-620 (colon cancer)) was “— (— GI% is below 15%)”, the GI% (MALME-3M (melanoma)) was “— (— GI% is below 15%)” and the GI% [5] was “— (— GI% is below 15%)”. For the same molecule, the GI% (HOP-92 (NSC lung cancer)) was “— (— GI% is below 15%)”, the GI% (HT29 (colon cancer)) was “— (— GI% is below 15%)” and the GI% (U251 (CNS cancer)) was “— (— GI% is below 15%)”. The GI% (M14 (melanoma)) was “— (— GI% is below 15%)”, the GI% [6] was “— (— GI% is below 15%)” and the GI% (SNB-75 (CNS cancer)) was “— (— GI% is below 15%)”. The GI% (CCRF-CEM (leukemia)) was “— (— GI% is below 15%)”, the GI% (OVCAR-8 (ovarian cancer)) was “— (— GI% is below 15%)” and the GI% (786-0 (renal cancer)) was “— (— GI% is below 15%)”. For the same molecule, the GI% (SK-OV-3 (ovarian cancer)) was “— (— GI% is below 15%)”, the GI% (SF-539 (CNS cancer)) was “— (— GI% is below 15%)” and the GI% (HOP-62 (NSC lung cancer)) was “— (— GI% is below 15%)”. For the same molecule, the GI% (OVCAR-4 (ovarian cancer)) was “— (— GI% is below 15%)”, the GI% (SF-268 (CNS cancer)) was “— (— GI% is below 15%)” and the GI% (PC-3 (prostate cancer)) was “— (— GI% is below 15%)”. For the same molecule, the GI% (RXF 393 (renal cancer)) was “— (— GI% is below 15%)”, the GI% [7] was “— (— GI% is below 15%)” and the GI% [8] was “— (— GI% is below 15%)”. The GI% [9] was “— (— GI% is below 15%)”, the GI% (KM12 (colon cancer)) was “— (— GI% is below 15%)” and the GI% (SNB-19 (CNS cancer)) was “— (— GI% is below 15%)”. For the same molecule, the GI% (CAKI-1 (renal cancer)) was “— (— GI% is below 15%)”, the GI% (COLO-205 (colon cancer)) was “— (— GI% is below 15%)” and the GI% (ACHN (renal cancer)) was “— (— GI% is below 15%)”. For the same molecule, the GI% (SF-295 (CNS cancer)) was “— (— GI% is below 15%)”, the GI% (HS 578T (breast cancer)) was “— (— GI% is below 15%)” and the GI% (OVCAR-3 (ovarian cancer)) was “— (— GI% is below 15%)”. For the same molecule, the GI% (LOX IMIV (melanoma)) was “— (— GI% is below 15%)”, the GI% (A498 (renal cancer)) was “— (— GI% is below 15%)” and the GI% (EKVX (NSC lung cancer)) was “— (— GI% is below 15%)”. For the same molecule, the GI% (UACC-257 (melanoma)) was “— (— GI% is below 15%)”, the GI% (SN12C (renal cancer)) was “— (— GI% is below 15%)” and the inhibition at 10 µM [10] was less than 0%. For the same molecule, the GI% (IGROV1 (ovarian cancer)) was “— (— GI% is below 15%)”.
